Experimental data reported in patent publication US20140296147A1, “METHODS OF TREATING OR PREVENTING BLOOD LOSS DURING SURGERY USING THE SERINE PROTEASE INHIBITOR MDCO-2010” (THE MEDICINES COMPANY, priority 2011, published 2014).
Where two headings read alike, the source gives them in different places. Marks after values point to notes of the source that are not given here.

Tests used:
[1] = system: patients undergoing elective, primary CABG (coronary artery bypass graft) surgery; experiment: Phase IIa placebo-controlled dose-escalation study: postoperative blood loss and transfusions; type: in vivo, human
Description: (§1) A Phase IIa, single-center, double-blind, placebo-controlled dose-escalation study was performed to investigate MDCO-2010 in patients undergoing elective, primary CABG (coronary artery bypass graft) surgery.
After independent ethics committee approval and written informed consent, thirty two patients underwent CABG surgery (patient characteristics shown in Table 1) through midline sternotomy using minimized extracorporeal circulation (MECC, priming volume of 600 mL).
Initial heparin dosing (400 units/kg) and heparin maintenance was guided by the Hepcon HMS, with a kaolin ACT target of 480 seconds. Immediately after heparin bolus, study drug administration was initiated with a loading (bolus) dose followed by a continuous infusion of the maintenance dose via a central venous catheter until sternal closure. Patients were randomized in a 3:1 ratio to receive either one of five MDCO-2010 doses (continuous infusion of 12.5, 25, 62.5, 109 or 219 μg/kg/h maintenance dose; 24 patients) or saline as placebo (8 patients). […]
loading dose 5 μg/kg, maintenance dose 12.5 μg/kg/h; pump prime 0.02 mg; 3 patients loading dose 11 μg/kg, maintenance dose 25 μg/kg/h; pump prime 0.04 mg; 3 patients loading dose 27 μg/kg, maintenance dose 62.5 μg/kg/h; pump prime 0.09 mg; 6 patients loading dose 47 μg/kg, maintenance dose 109 μg/kg/h; pump prime 0.18 mg; 6 patients loading dose 94 μg/kg, maintenance dose 219 μg/kg/h; pump prime 0.35 mg; 6 patients The loading dose was administered over a five minute period of time in a 10 mL infusion. The maintenance dose was administered as a continuous infusion with a constant flow rate of 23 mL/h for the duration of procedure. MDCO-2010 was also added to the pump prime fluid to the targeted plasma concentration. The pump prime was supplied as a 10 mL load.

[2] = Plasma pharmacokinetics of MDCO-2010 (LC/MS/MS, non-compartmental analysis) during CABG surgery; type: in vivo, human; details: for half-life / clearance / Vd / AUC(0-inf) / AUC(0-t) / Cmax: human, plasma
Description: Nominal blood sampling times for PK analysis were pre-dose (T1, pre-heparin) and at 10 min (pre-CBP), 15 min, 30 min, 60 min (or just before cessation of CPB), at the end of infusion (sternal closure), 15 min, 30 min, and at 4 hours post-end of infusion. Actual times were calculated for each patient and used for PK analysis.
MDCO-2010 was measured in plasma by liquid chromatography with tandem mass spectrometry (LC/MS/MS).
Plasma concentrations versus time data were analyzed by non-compartmental analysis using the program WinNonlin Professional Version 5.3 (Pharsight, Mountain View, Calif., USA). Actual sampling times were used for the evaluation.
The following parameters were determined: • AUC0-tlast=area under the MDCO-2010 concentration versus time curve from dosing time to the last time point with a value above the lower limit of quantitation (LLOQ), calculated by linear/log trapezoidal method which uses the linear trapezoidal rule up to Cmax and log trapezoidal rule for the remainder of the curve • AUC0-inf=area under the concentration-time curve from […]; calculated as AUC0-tlast+AUCexpol, where AUCexpol=Clast/λ • Css=steady-state plasma concentration calculated by taking the average of the concentrations in T4 to T7 • Cmax=maximum concentration, directly taken from measured values • t1/2=apparent terminal elimination half-life determined by log-linear regression • CL=total body clearance • Vss=volume of distribution at steady state
Descriptive statistics (number of subjects, arithmetic means, standard deviation (SD), geometric means, medians, minimum and maximum values) were determined for all PK variables, separately for each treatment. Values below the LLOQ of the assay were taken as zero for descriptive statistics of concentrations. For AUC calculations, values below LLOQ were taken as zero if no quantifiable concentrations were found before the value, as missing if quantifiable concentrations were found before and after the value, and also as missing if quantifiable concentrations were found before, but not after the value. Mean (±SD) concentration time plots were provided for each treatment group using linear and semi-logarithmic scale.
Dose proportionality was assessed by the power model using SAS Version 9 (SAS Institute Inc., Cary, N.C.).
The mean values for PK parameters per dose group (mean (±SD) pharmacokinetic variables of MDCO-2010 administered via IV infusion during CABG surgery based on non-compartmental analysis) are summarized in Table 3.

tPA-induced fibrinolysis = experiment: Antifibrinolytic effect: D-dimer generation and tPA-induced lysis in CABG patients; type: in vivo, human; details: five escalating doses, FIG. 2
Description: as §1
(§2) Initial heparin dosing (400 units/kg) and heparin maintenance was guided by the Hepcon HMS, with a kaolin ACT target of 480 seconds. Immediately after heparin bolus, study drug administration was initiated with a loading (bolus) dose followed by a continuous infusion of the maintenance dose via a central venous catheter until sternal closure. Patients were randomized in a 3:1 ratio to receive either one of five MDCO-2010 doses (continuous infusion of 12.5, 25, 62.5, 109 or 219 μg/kg/h maintenance dose; 24 patients) or saline as placebo (8 patients).

[3] = system: intrinsic and extrinsic pathways; experiment: Anticoagulant effect: ACT, aPTT and ROTEM coagulation times in CABG patients; type: in vivo, human; details: five escalating doses, FIG. 3
Description: as §1, §2

[4] = system: patients undergoing elective, primary CABG (coronary artery bypass graft) surgery; experiment: Safety markers and safety profile in CABG patients; type: in vivo, human
Description: as §1, §2

plasmin = plasmin (Homo sapiens, UniProt P00747); details: active-site directed, reversible, no cofactor; cited from earlier work
plasmin, sequence (P00747 581-810 limits assumed): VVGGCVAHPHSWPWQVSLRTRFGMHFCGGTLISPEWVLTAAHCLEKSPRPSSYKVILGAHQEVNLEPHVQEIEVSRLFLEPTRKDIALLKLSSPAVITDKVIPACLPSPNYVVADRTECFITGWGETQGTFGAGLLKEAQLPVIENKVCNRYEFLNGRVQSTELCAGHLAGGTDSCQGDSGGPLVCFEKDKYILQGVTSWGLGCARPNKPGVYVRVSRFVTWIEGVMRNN
plasmin, sequence (P00747 97-580 partner limits assumed): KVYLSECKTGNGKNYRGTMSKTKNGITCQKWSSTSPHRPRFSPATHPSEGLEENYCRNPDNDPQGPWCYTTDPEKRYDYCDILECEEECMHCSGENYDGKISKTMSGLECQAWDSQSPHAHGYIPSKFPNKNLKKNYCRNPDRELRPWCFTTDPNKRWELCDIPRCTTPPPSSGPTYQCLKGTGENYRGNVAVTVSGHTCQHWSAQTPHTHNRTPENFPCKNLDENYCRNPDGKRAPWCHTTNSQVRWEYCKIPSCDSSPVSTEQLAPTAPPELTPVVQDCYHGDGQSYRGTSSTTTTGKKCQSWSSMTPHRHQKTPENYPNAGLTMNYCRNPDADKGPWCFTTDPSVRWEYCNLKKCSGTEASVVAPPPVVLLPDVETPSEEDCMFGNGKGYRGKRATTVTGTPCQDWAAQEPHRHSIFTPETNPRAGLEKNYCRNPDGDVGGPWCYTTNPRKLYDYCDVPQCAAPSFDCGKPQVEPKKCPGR

plasma kallikrein = plasma kallikrein (Homo sapiens, UniProt P03952); details: active-site directed, reversible, no cofactor; cited from earlier work
plasma kallikrein, sequence (P03952 391-638 limits assumed): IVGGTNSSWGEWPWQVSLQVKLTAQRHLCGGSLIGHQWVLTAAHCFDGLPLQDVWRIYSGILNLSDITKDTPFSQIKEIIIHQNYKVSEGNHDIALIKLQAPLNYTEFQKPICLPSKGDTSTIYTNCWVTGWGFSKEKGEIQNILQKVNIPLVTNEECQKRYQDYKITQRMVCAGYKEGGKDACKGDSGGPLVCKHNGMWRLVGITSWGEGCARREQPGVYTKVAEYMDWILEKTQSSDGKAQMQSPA
plasma kallikrein, sequence (P03952 20-390 partner limits assumed): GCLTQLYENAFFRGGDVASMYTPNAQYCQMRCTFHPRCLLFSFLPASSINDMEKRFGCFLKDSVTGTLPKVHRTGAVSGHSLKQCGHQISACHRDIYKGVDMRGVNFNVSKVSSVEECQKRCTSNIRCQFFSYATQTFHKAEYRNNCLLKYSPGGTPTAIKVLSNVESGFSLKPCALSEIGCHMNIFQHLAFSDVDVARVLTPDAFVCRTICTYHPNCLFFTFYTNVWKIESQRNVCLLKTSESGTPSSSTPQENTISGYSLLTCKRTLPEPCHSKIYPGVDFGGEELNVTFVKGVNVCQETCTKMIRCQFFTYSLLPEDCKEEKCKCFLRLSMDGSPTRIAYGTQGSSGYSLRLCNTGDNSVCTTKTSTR

coagulation Factor Xa = coagulation Factor Xa (Homo sapiens, UniProt P00742); details: cited from earlier work
coagulation Factor Xa, sequence (P00742 235-488 limits assumed): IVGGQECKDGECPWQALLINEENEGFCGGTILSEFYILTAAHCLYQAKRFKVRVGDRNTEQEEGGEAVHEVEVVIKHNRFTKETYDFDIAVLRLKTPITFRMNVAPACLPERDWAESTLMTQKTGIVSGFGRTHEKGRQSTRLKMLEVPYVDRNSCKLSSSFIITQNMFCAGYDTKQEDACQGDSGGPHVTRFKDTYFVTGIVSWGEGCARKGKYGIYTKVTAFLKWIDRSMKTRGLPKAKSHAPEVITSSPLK
coagulation Factor Xa, sequence (P00742 41-179 partner limits assumed): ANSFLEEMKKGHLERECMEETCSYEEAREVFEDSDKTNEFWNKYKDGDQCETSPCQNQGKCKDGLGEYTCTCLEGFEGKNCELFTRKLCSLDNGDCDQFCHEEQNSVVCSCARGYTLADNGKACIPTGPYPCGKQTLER

coagulation Factor XIa = coagulation Factor XIa (Homo sapiens, UniProt P03951); details: cited from earlier work
coagulation Factor XIa, sequence (P03951 388-625 limits assumed): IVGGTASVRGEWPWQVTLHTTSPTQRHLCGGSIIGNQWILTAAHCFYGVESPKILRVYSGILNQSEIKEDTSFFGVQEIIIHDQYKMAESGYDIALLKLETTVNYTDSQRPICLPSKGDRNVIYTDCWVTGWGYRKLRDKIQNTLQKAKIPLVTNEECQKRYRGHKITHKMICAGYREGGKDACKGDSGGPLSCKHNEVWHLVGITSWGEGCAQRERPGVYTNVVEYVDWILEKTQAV
coagulation Factor XIa, sequence (P03951 19-387 partner limits assumed): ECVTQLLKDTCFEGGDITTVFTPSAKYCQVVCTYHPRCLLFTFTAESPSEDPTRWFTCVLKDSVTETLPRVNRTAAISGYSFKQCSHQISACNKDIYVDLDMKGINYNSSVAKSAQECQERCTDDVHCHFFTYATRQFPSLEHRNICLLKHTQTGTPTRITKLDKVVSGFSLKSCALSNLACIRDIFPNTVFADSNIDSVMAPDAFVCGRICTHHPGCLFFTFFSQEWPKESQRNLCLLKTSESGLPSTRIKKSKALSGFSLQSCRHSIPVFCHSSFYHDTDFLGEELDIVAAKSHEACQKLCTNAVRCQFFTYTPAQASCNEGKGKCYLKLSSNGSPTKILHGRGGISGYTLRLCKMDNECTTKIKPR

activated Protein C = activated Protein C (Homo sapiens, UniProt P04070); details: cited from earlier work
activated Protein C, sequence (P04070 212-461 limits assumed): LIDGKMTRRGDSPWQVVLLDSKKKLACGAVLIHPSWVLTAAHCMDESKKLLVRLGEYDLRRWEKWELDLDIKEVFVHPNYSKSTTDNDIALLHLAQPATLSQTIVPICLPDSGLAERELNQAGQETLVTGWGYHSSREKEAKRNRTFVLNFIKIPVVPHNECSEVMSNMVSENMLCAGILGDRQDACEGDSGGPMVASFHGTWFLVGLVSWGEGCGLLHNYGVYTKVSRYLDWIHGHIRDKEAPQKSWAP
activated Protein C, sequence (P04070 43-197 partner limits assumed): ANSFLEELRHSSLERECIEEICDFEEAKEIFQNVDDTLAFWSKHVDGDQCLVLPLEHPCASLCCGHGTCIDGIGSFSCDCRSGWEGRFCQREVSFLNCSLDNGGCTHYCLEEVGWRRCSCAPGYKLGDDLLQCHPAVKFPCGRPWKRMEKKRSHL

[5] = Cohort 1 (N = 3): loading dose 5 μg/kg, maintenance dose 12.5 μg/kg/h
[6] = Cohort 2 (N = 3): loading dose 11 μg/kg, maintenance dose 25 μg/kg/h
[7] = Cohort 3 (N = 6): loading dose 27 μg/kg, maintenance dose 62.5 μg/kg/h
[8] = Cohort 4 (N = 6): loading dose 47 μg/kg, maintenance dose 109 μg/kg/h
[9] = Cohort 5 (N = 6): loading dose 94 μg/kg, maintenance dose 219 μg/kg/h, 1 patient received additional heparin without protamine reversal
[10] = Cohort 1, mean dose 1.88 mg, IV infusion during CABG surgery, mean
[11] = Cohort 2, mean dose 4.99 mg, IV infusion during CABG surgery, mean
[12] = Cohort 3, mean dose 12.33 mg, IV infusion during CABG surgery, mean
[13] = Cohort 4, mean dose 19.57 mg, IV infusion during CABG surgery, mean
[14] = Cohort 5, mean dose 38.01 mg, IV infusion during CABG surgery, mean

Css [2, 10]: 50.06 ng/mL | Css [2, 11]: 96.31 ng/mL | Css [2, 12]: 268.21 ng/mL | Css [2, 13]: 478.86 ng/mL | Css [2, 14]: 1009.17 ng/mL | plasma levels during the infusion ([2]; continuous infusion, FIG. 1): stable | mean MDCO-2010 plasma concentrations versus dose ([2]; five escalating doses, CABG patients): linear dose-proportional increase | half-life ([2]; intravenous, following an approximately 100 minute infusion period, all cohorts, read-out: mean value for the elimination half-life): ~1.38 h | half-life ([2]; intravenous, after end of infusion, CABG patients, read-out: terminal half-life (converted)): 1 h | half-life ([2]; intravenous, range over cohorts, read-out: elimination half-life, range): 1.02 to 1.7 h | clearance ([2]; intravenous, 1.88 mg total dose, read-out: Total body clearance): 220 ± 78 mL/min | clearance ([2]; intravenous, 38.01 mg total dose, read-out: Total body clearance): 153 ± 19 mL/min | Vd ([2]; intravenous, all dose levels, read-out: Volume of distribution (Vss), range): 12 to 17 L | half-life ([2]; iv, 1.88 mg, Cohort 1, mean dose 1.88 mg, IV infusion during CABG surgery, mean, read-out: t1/2): 1.02 h | half-life ([2]; iv, 4.99 mg, Cohort 2, mean dose 4.99 mg, IV infusion during CABG surgery, mean, read-out: t1/2): 1.21 h | half-life ([2]; iv, 12.33 mg, Cohort 3, mean dose 12.33 mg, IV infusion during CABG surgery, mean, read-out: t1/2): 1.26 h | half-life ([2]; iv, 19.57 mg, Cohort 4, mean dose 19.57 mg, IV infusion during CABG surgery, mean, read-out: t1/2): 1.74 h | half-life ([2]; iv, 38.01 mg, Cohort 5, mean dose 38.01 mg, IV infusion during CABG surgery, mean, read-out: t1/2): 1.72 h | AUC(0-inf) [2, 10]: 152 ng·h/mL | AUC(0-t) [2, 10]: 125 ng·h/mL | Cmax [2, 10]: 54.8 ng/mL | clearance ([2]; Cohort 1, mean dose 1.88 mg, IV infusion during CABG surgery, mean, read-out: Cl): 220 mL/min | Vd ([2]; Cohort 1, mean dose 1.88 mg, IV infusion during CABG surgery, mean, read-out: Vss): 12.7 L | AUC(0-inf) [2, 11]: 334 ng·h/mL | AUC(0-t) [2, 11]: 278 ng·h/mL | Cmax [2, 11]: 114 ng/mL | clearance ([2]; Cohort 2, mean dose 4.99 mg, IV infusion during CABG surgery, mean, read-out: Cl): 263 mL/min | Vd ([2]; Cohort 2, mean dose 4.99 mg, IV infusion during CABG surgery, mean, read-out: Vss): 16.1 L | AUC(0-inf) [2, 12]: 991 ng·h/mL | AUC(0-t) [2, 12]: 905 ng·h/mL | Cmax [2, 12]: 288 ng/mL | clearance ([2]; Cohort 3, mean dose 12.33 mg, IV infusion during CABG surgery, mean, read-out: Cl): 199 mL/min | Vd ([2]; Cohort 3, mean dose 12.33 mg, IV infusion during CABG surgery, mean, read-out: Vss): 12.3 L | AUC(0-inf) [2, 13]: 1880 ng·h/mL | AUC(0-t) [2, 13]: 1640 ng·h/mL | Cmax [2, 13]: 564 ng/mL | clearance ([2]; Cohort 4, mean dose 19.57 mg, IV infusion during CABG surgery, mean, read-out: Cl): 179 mL/min | Vd ([2]; Cohort 4, mean dose 19.57 mg, IV infusion during CABG surgery, mean, read-out: Vss): 17.4 L | AUC(0-inf) [2, 14]: 4060 ng·h/mL | AUC(0-t) [2, 14]: 3620 ng·h/mL | Cmax [2, 14]: 1150 ng/mL | clearance ([2]; Cohort 5, mean dose 38.01 mg, IV infusion during CABG surgery, mean, read-out: Cl): 153 mL/min | Vd ([2]; Cohort 5, mean dose 38.01 mg, IV infusion during CABG surgery, mean, read-out: Vss): 15.1 L | plasma levels abated ([2]; within 4 hours of the end of infusion): 85%
Compound: N=C(N)c1ccc(CNC(=O)[C@H](Cc2cccc(CN)c2)NC(=O)[C@@H](CCCc2ccccc2)NS(=O)(=O)Cc2cccc(C(=O)O)c2)cc1 [MDCO-2010, 3-({1-[2-(3-Aminomethyl-phenyl)-1-(4-carbamimidoyl-benzylcarbamoyl)-ethylcarbamoyl]-4-phenyl-butylsulfamoyl}-methyl)-benzoic acid]
12 hour postoperative chest tube drainage, median ± SD [1, 5]: 450 ± 172 mL | Average number of transfusions per patient [1, 5]: 0 | Patients receiving transfusions [1, 5]: 0/3 | 12 hour postoperative chest tube drainage, median ± SD [1, 6]: 595 ± 125 mL | Average number of transfusions per patient [1, 6]: 0 | Patients receiving transfusions [1, 6]: 0/3 | Average number of transfusions per patient [1, 7]: 0.33 | Patients receiving transfusions [1, 7]: 1/6 | Average number of transfusions per patient [1, 8]: 0.17 | Patients receiving transfusions [1, 8]: 1/6 | Average number of transfusions per patient [1, 9]: 0.67† | Patients receiving transfusions [1, 9]: 2/6† | Chest tube drainage, incidence and volume of RBC transfusions vs. placebo ([1]; MDCO-2010 vs. placebo): significantly lower | antifibrinolytic effect (suppression of D-dimer generation and inhibition of tPA-induced lysis) (tPA-induced fibrinolysis): dose-dependent antifibrinolytic effect | ACT, aPTT and rotation thrombelastometry (ROTEM) coagulation times [3]: dose-related prolongation | troponin T, CK-MB, prothrombin fragment F1+2, interleukins IL-6 and IL-10, ALAT, ASAT, serum creatinine vs. placebo ([4]; patients treated with MDCO-2010 vs. placebo, results not shown): No differences | safety profile of escalating doses ([4]; primary CABG surgery, first-in-patient study): acceptable safety profile | inhibition of plasmin (plasmin): potent inhibitor | inhibition of plasma kallikrein (plasma kallikrein): potent inhibitor | inhibition of coagulation Factor Xa (coagulation Factor Xa): inhibits | inhibition of coagulation Factor XIa (coagulation Factor XIa): inhibits | inhibition of activated Protein C (activated Protein C): inhibits
